From patent publication US6680058B1, “Compositions and methods for contraception in or sterilization of mammals” (Board of Supervisors of Louisiana State University and …, priority 1997, dated 2004)
Where no end group is shown, it is not given here.

What was measured:
[1] = tested on: sexually mature, Sprague-Dawley female rats; assay: Sexually mature Sprague-Dawley female rats, single intravenous treatment, necropsy 48 or 96 hours after treatment, H&E and PAS stain (Examples 15-22); type: in vivo, rat; details: for appearance of the pituitary glands: 1 mg i.v.
Procedure: Eight sexually mature, Sprague-Dawley female rats were randomly assigned to one of eight treatments. Each group of rats received a single treatment intravenously, as described below. Rats were sacrificed and necropsied either 48 or 96 hours after treatment. The ovaries, uterus, pancreas, liver, spleen, lungs, heart, thyroid, and adrenal glands were fixed in 10% buffered formalin; sectioned; and stained with H&E (hematoxylin and eosin) stain; except that the pituitary glands were stained with PAS (periodic acid-Schiff) stain with no counter-stain. The treatments were selected so that each animal received an equimolar amount of the compound with which it was treated.

[2] = tested on: sexually mature female rabbits; assay: Sexually mature female rabbits, intravenous GnRH-hecate, GnRH challenge day 6, sacrifice day 7 (Examples 47-48); type: in vivo, rabbit
Procedure: Nine sexually mature female rabbits were injected intravenously with saline containing 0 mg (n=4) (Treatment 47) or 10 mg GnRH-hecate (n=5) (Treatment 48). Rabbits were injected intramuscularly with GnRH on day 6 post-treatment. Blood samples were collected for radioimmunoassay of LH and FSH as described above, and the animals were sacrificed on day 7 post-treatment. […] Again, the effects were more pronounced on GnRH neurons than on staining of pituitary gonadotropes.
The number of ovulation sites in rabbits in Examples 47 and 48 treated with 10 mg GnRH-hecate were reduced as compared to saline controls. The mean number of ovulation sites in four saline controls equalled 12.2±5.4, with S.E.M.=2.7. The mean number of ovulation sites in the five rabbits given 10 mg of GnRH-hecate was 3.6±1.1, with S.E.M.=0.5. This difference from control was significant (p=0.025).
The “LH surge” (the level of LH at one hour post-GnRH challenge, minus the resting level before challenge) in the four controls was 61.2±16.5 ng/mL, with S.E.M.=8.3; and in the treated group was 49.6±26.1 ng/mL, with S.E.M.=12 (p=0.22). Thus there was a trend towards lower LH levels in the treated group.

[3] = tested on: sexually mature, mixed breed, female rats; assay: Sexually mature female rats, double intravenous treatment, necropsy two weeks after treatment (Examples 9-14); type: in vivo, rat
From the text: Eighteen sexually mature, mixed breed, female rats were randomly assigned to one of six groups containing three rats each. Each group of rats received a double treatment intravenously, as described below. Two weeks after the treatment, the rats were sacrificed and necropsied. The reproductive and endocrine organs were sectioned, weighed, and examined histologically.

[4] = tested on: GnRH receptor-bearing cells in the brain (neurons) and in the pituitary (gonadotrophic cells); assay: Summary of the in vivo studies: selectivity of the GnRH-hecate conjugate; set-up: species or system rats and rabbits
[5] = tested on: pituitary basophilic (gonadotropic) cells; assay: Adult female rat pituitary gland sections in tissue culture, histology ten hours after treatment (Examples 1-6); type: cell-based
Procedure: The pituitary gland of an adult female rat was harvested and divided into six sections of approximately equal size. One section was placed in each of six wells containing tissue culture medium at 37° C. A different treatment was applied to each well, as described below. Ten hours after treatment, the tissue from each well was fixed, and the histology of each was examined microscopically.

[6] = tested on: sexually immature female rats; assay: Sexually immature (33 day old) female rats, intravenous GnRH-hecate dose series, sacrificed at 24 hours or 14 days (Examples 39-43); type: in vivo, rat; details: for abnormal GnRH-receptor-containing neurons: sacrificed fourteen days after treatment
Procedure: Sexually immature (33 day old) female rats (randomly allocated into groups of three) were injected intravenously with saline or GnRH-hecate in saline as follows:
Animals were sacrificed at 24 hours or at 14 days after treatment. […] In the rats sacrificed fourteen days after treatment, 66% and 87% of the GnRH-receptor-containing neurons were abnormal in the rats that had received 1.0 and 1.5 mg of GnRH-hecate, respectively. Axonal degeneration in the 1.5 mg GnRH-hecate group was accompanied by over 90% reduction in median eminence staining for GnRH.

[7] = Treatment 10: two 0.5 mg i.v. injections 24 hours apart, two weeks
[8] = Treatment 14: fusion peptide further purified by HPLC, two 0.5 mg i.v. injections 24 hours apart
[9] = 0.1 to 1.5 mg i.v., 24 hours or 14 days

GnRH-hecate: fusion peptide of modified GnRH bonded directly to the lytic peptide hecate, SEQ. ID NO. 3 (QHWSYGLRPGFALALKALKKALKKLKKALKKAL; ends and bridges not checked; also: GnRH part modified, modification not given here)
appearance of the pituitary glands ([1]; sacrificed 48 hours after injection): slightly enlarged, hyperemic, and edematous
appearance of the pituitary glands ([1]; sacrificed 96 hours after injection): slightly hyperemic, but of expected size
gross lesions in the organs ([1]; 1 mg in 100 μL saline (2.7 mM) i.v., sacrificed 48 or 96 hours after injection): No gross lesions were noted in the organs of any of the four animals, other than the pituitary
amount of LH released in response to GnRH ([2]; 10 mg i.v. (n=5), GnRH i.m. on day 6 post-treatment): lower in the treated animals than in the controls
mean number of ovulation sites ([2]; 10 mg i.v., five rabbits, S.E.M.=0.5, saline controls 12.2±5.4, p=0.025): 3.6±1.1
LH surge (level of LH at one hour post-GnRH challenge, minus the resting level before challenge) ([2]; 10 mg i.v., S.E.M.=12, controls 61.2±16.5 ng/mL, p=0.22): 49.6 ± 26.1 ng/mL
effects on peripheral tissues ([2]; 10 mg i.v., day 7): No effects
effects on pituitary weight ([2]; 10 mg i.v., day 7): No effects
numbers of GnRH-induced ovulations ([2]; 10 mg i.v., day 7): reduced
numbers of tertiary ovarian follicles ([2]; 10 mg i.v., day 7): reduced
ovarian function / follicular development ([3]; Treatment 10: total 1.0 mg in saline i.v. as two 0.5 mg injections 24 hours apart, two weeks): arrest of normal ovarian follicular development
corpora lutea and follicles [3, 7]: Few corpora lutea were present, and those that were present appeared old. Follicles were large, and had not ruptured
pituitary size [3, 7]: slightly smaller than the pituitaries from the saline control group
uterine morphology [3, 7]: consistent with hormonal inactivity
corpora lutea and follicles [3, 8]: Few corpora lutea were present, and those that were present appeared old. Follicles were large, and had not ruptured
uterine morphology [3, 8]: consistent with hormonal inactivity
ovarian function / follicular development ([3]; Treatment 14: fusion peptide further purified by HPLC, two 0.5 mg i.v. injections 24 hours apart, two weeks): arrest of normal ovarian follicular development
changes in other endocrine and non-endocrine tissues (except for the ovary) [4]: No changes
changes in pituitary cells that lacked GnRH receptors [4]: No changes
cytotoxic changes in neurons that lacked GnRH receptors [4]: No cytotoxic changes
effect on GnRH receptor-bearing cells [4]: selectively damaged GnRH receptor-bearing cells in the brain (neurons) and in the pituitary (gonadotrophic cells)
histology of pituitary tissue after treatment ([5]; 50 μM fusion peptide, ten hours): Widespread basophilic (gonadotropic) cellular destruction
histology of pituitary tissue after treatment ([5]; initial application of fusion peptide, second application two hours later): virtually destroyed, with only stromal cells remaining
abnormal GnRH-receptor-containing neurons ([6]; 1.0 mg i.v.): 66%
reduction in median eminence staining for GnRH ([6]; 1.5 mg i.v.): over 90%
abnormal GnRH-receptor-containing neurons ([6]; 1.5 mg i.v.): 87%
VP staining in the CNS [6, 9]: not altered
precipitate in the brain [6, 9]: no precipitate was found in the brain
morphology of GnRH-receptor-containing neurons ([6]; treatments with higher levels of GnRH-hecate): a large number of GnRH-receptor-containing neurons having abnormal morphologies
